US7456133B2, “Substituted arylketones” (Bayer CropScience AG, priority 2001, dated 2008)

system: weeds; experiment: Post-emergence test, damage to weeds; format: in vivo; conditions: test plants of 5-15 cm sprayed, rated after three weeks
Description: Solvent: 5 part by weight of acetone
Emulsifier: 1 part by weight of alkylaryl polyglycol ether
To produce a suitable preparation of active compound, 1 part by weight of active compound is mixed with the stated amount of solvent, the stated amount of emulsifier is added and the concentrate is diluted with water to the desired concentration.
Test plants of a height of 5-15 cm are sprayed with the preparation of active compound such that the particular amounts of active compound desired are applied per unit area. The concentration of the spray liquor is chosen such that the particular amounts of active compound desired are applied in 1000 l of water/ha.
After three weeks, the degree of damage to the plants is rated in % damage in comparison to the development of the untreated control. The figures denote: • 0%=no effect (like untreated control) • 100%=total destruction

Row | SMILES | activity against weeds
1 | CCn1ncc(C(=O)c2ccc(Cl)c(OCCNC(C)=O)c2Cl)c1OCc1ccc(Br)cc1 [Example I-2-4, N-{2-[3-({5-[(4-bromo-benzyl)-oxy]-1-ethyl-1H-pyrazol-4-yl}-carbonyl)-2,6-dichloro-phenoxy]-ethyl}-acetamide] | strong activity

system: not listed separately; experiment: Log P by reversed-phase HPLC (C 18), acidic range; format: physicochemical; conditions: Table 1, labelled a): acidic range, 0.1% aqueous phosphoric acid/acetonitrile gradient, 43° C.
Description: Log P values given in the tables were determined in accordance with EEC Directive 79/831 Annex V.A8 by HPLC (High Performance Liquid Chromatography) using a reversed-phase column (C 18). Temperature: 43° C. (a) Mobile phases for the determination in the acidic range: 0.1% aqueous phosphoric acid, acetonitrile; linear gradient from 10% acetonitrile to 90% acetonitrile—the corresponding measurement results in Tables 1 and 2 are labelled^a).

Row | SMILES | log P
2 | O=C1CCCC(=O)C1C(=O)c1ccc(Cl)c(CNC(=S)Nc2ccccc2)c1Cl [Example I-2-9] | log P = 3.05^a)
3 | CC(C)NC(=O)N(Cc1c(Cl)ccc(C(=O)C2C(=O)CCCC2=O)c1Cl)C(C)C [Example I-2-10] | log P = 2.86^a)
4 | CC(C)NC(=O)N(Cc1c(Cl)ccc(C(=O)c2cnn(C)c2O)c1Cl)C(C)C [Example I-2-11] | log P = 2.02^a)
5 | CC(C)N(Cc1c(Cl)ccc(C(=O)C2C(=O)CCCC2=O)c1Cl)C(N)=O [Example I-2-12] | log P = 2.03^a)
6 | COCC(=O)NCCOc1c(Cl)ccc(C(=O)C2C(=O)CCCC2=O)c1Cl [Example I-2-13] | log P = 2.12^a)
7 | CC(C)N(Cc1c(Cl)ccc(C(=O)c2cnn(C)c2O)c1Cl)C(N)=O [Example I-2-14] | log P = 1.32^a)
8 | CCNC(=O)N(Cc1c(Cl)ccc(C(=O)C2C(=O)CCCC2=O)c1Cl)C(C)C [Example I-2-15] | log P = 2.33^a)
9 | CCNC(=O)N(Cc1c(Cl)ccc(C(=O)c2cnn(C)c2O)c1Cl)C(C)C [Example I-2-16] | log P = 1.42^a)
10 | CC(C)N(Cc1c(Cl)ccc(C(=O)C2C(=O)CCCC2=O)c1Cl)C(=O)N(C)C [Example I-2-17] | log P = 2.82^a)
11 | CC(C)N(Cc1c(Cl)ccc(C(=O)c2cnn(C)c2O)c1Cl)C(=O)N(C)C [Example I-2-18] | log P = 2.00^a)
12 | Cc1ccccc1NC(=O)NCc1c(Cl)ccc(C(=O)c2cnn(C)c2O)c1Cl [Example I-2-19] | log P = 1.95^a)
13 | CN(C)C(=O)NCc1c(Cl)ccc(C(=O)C2C(=O)CCCC2=O)c1Cl [Example I-2-21] | log P = 1.87^a)
14 | CC(C)NC(=O)NCc1c(Cl)ccc(C(=O)c2cnn(C)c2O)c1Cl [Example I-2-22] | log P = 1.35^a)
15 | CN(C)C(=O)NCc1c(Cl)ccc(C(=O)c2cnn(C)c2O)c1Cl [Example I-2-23] | log P = 1.13^a)
16 | CN(C)C(=O)N(Cc1c(Cl)ccc(C(=O)C2C(=O)CCCC2=O)c1Cl)C1CC1 [Example I-2-24] | log P = 2.45^a)
17 | CN(C)C(=O)N(Cc1c(Cl)ccc(C(=O)c2cnn(C)c2O)c1Cl)c1ccc(Cl)cc1 [Example I-2-25] | log P = 1.69^a)
18 | CC(C)N(Cc1c(Cl)ccc(C(=O)C2C(=O)CCCC2=O)c1Cl)C(=O)Oc1ccccc1 [Example I-2-42] | log P = 4.25^a)
19 | CC(C)N(Cc1c(Cl)ccc(C(=O)c2cnn(C)c2O)c1Cl)C(=O)Oc1ccccc1 [Example I-2-43] | log P = 3.19^a)
20 | CCOC(=O)N(Cc1c(Cl)ccc(C(=O)C2C(=O)CCCC2=O)c1Cl)C(C)C [Example I-2-44] | log P = 3.69^a)
21 | CCOC(=O)N(Cc1c(Cl)ccc(C(=O)c2cnn(C)c2O)c1Cl)C(C)C [Example I-2-45] | log P = 2.69^a)

Row | SMILES | log P
22 | CC(C)NC(=O)N(Cc1c(Cl)ccc(C(=O)C2C(=O)CCCC2=O)c1Cl)C1CC1 [Example I-2-56] | log P = 2.75^a)
23 | CNC(=S)N(Cc1c(Cl)ccc(C(=O)c2cnn(C)c2O)c1Cl)C(C)C [Example I-2-58] | log P = 1.91^a)
24 | CNC(=O)N(C)Cc1c(Cl)ccc(C(=O)C2C(=O)CCCC2=O)c1Cl [Example I-2-59] | log P = 1.81^a)
25 | CNC(=O)N(C)Cc1c(Cl)ccc(C(=O)c2cnn(C)c2O)c1Cl [Example I-2-60] | log P = 1.11^a)
26 | CN(C)C(=O)N(C)Cc1c(Cl)ccc(C(=O)C2C(=O)CCCC2=O)c1Cl [Example I-2-61] | log P = 2.26^a)
27 | CN(C)C(=O)N(C)Cc1c(Cl)ccc(C(=O)c2cnn(C)c2O)c1Cl [Example I-2-62] | log P = 1.48^a)
28 | CNC(=S)N(C)Cc1c(S(C)(=O)=O)ccc(C(=O)C2C(=O)CCCC2=O)c1Cl [Example I-2-63] | log P = 1.81^a)
29 | CNC(=S)N(C)Cc1c(S(C)(=O)=O)ccc(C(=O)c2cnn(C)c2O)c1Cl [Example I-2-64] | log P = 1.00^a)
30 | Cn1ncc(C(=O)c2ccc(S(C)(=O)=O)c(CNC(N)=O)c2Cl)c1O [Example I-2-65] | log P = 0.30^a)
31 | CCNC(=O)NCc1c(S(C)(=O)=O)ccc(C(=O)C2C(=O)CCCC2=O)c1Cl [Example I-2-66] | log P = 1.57^a)
32 | O=C(NCCOc1c(Cl)ccc(C(=O)C2C(=O)CCCC2=O)c1Cl)C1CC1 [Example I-2-68] | log P = 2.28^a)
33 | CC(C)OC(=O)NCCOc1c(Cl)ccc(C(=O)C2C(=O)CCCC2=O)c1Cl [Example I-2-69] | log P = 2.98^a)
34 | CNC(=O)NCCOc1c(Cl)ccc(C(=O)C2C(=O)CCCC2=O)c1Cl [Example I-2-73] | log P = 1.84^a)
35 | CNC(=S)NCCOc1c(Cl)ccc(C(=O)C2C(=O)CCCC2=O)c1Cl [Example I-2-75] | log P = 2.23^a)
36 | Cc1ccccc1NC(=O)NCc1c(S(C)(=O)=O)ccc(C(=O)c2cnn(C)c2O)c1Cl [Example I-2-81] | log P = 1.58^a)
37 | CN(C)C(=O)NCc1c(S(C)(=O)=O)ccc(C(=O)C2C(=O)CCCC2=O)c1Cl [Example I-2-82] | log P = 1.58^a)
38 | CN(C)C(=O)NCc1c(S(C)(=O)=O)ccc(C(=O)c2cnn(C)c2O)c1Cl [Example I-2-83] | log P = 0.77^a)
39 | Cn1ncc(C(=O)c2ccc(Cl)c(OCCNC(N)=O)c2Cl)c1O [Example I-2-118] | log P = 1.66^a)
40 | Cn1ncc(C(=O)c2ccc(Cl)c(OCCNC(N)=O)c2Cl)c1O [Example I-2-119] | log P = 1.22^a)
41 | Cc1ccccc1NC(=O)NCc1c(S(C)(=O)=O)ccc(C(=O)C2C(=O)CCCC2=O)c1Cl [Example I-2-140] | log P = 2.35^a)

same assay, conditions: reversed-phase HPLC (C 18), acidic range: 0.1% aqueous phosphoric acid, acetonitrile; 43° C.; labelled a)

Row | SMILES | log P
42 | CC(C)NC(=O)N(Cc1ccc(C(=O)C2C(=O)CCCC2=O)c([N+](=O)[O-])c1)C(C)C [Example I-3-5] | log P = 2.53^a)
43 | CC(C)NC(=O)N(Cc1ccc(C(=O)c2cnn(C)c2O)c([N+](=O)[O-])c1)C(C)C [Example I-3-6] | log P = 1.64^a)
44 | CC(C)N(Cc1ccc(C(=O)c2cnn(C)c2O)c([N+](=O)[O-])c1)C(=O)N(C)C [Example I-3-7] | log P = 1.63^a)
45 | CCNC(=O)N(Cc1ccc(C(=O)C2C(=O)CCCC2=O)c([N+](=O)[O-])c1)c1ccccc1 [Example I-3-8] | log P = 2.60^a)
46 | CCNC(=O)N(Cc1ccc(C(=O)c2cnn(C)c2O)c([N+](=O)[O-])c1)c1ccccc1 [Example I-3-9] | log P = 1.75^a)
47 | CC(C)NC(=O)N(Cc1ccc(C(=O)C2C(=O)CCCC2=O)c([N+](=O)[O-])c1)c1ccccc1 [Example I-3-10] | log P = 2.94^a)
48 | CC(C)NC(=O)N(Cc1ccc(C(=O)c2cnn(C)c2O)c([N+](=O)[O-])c1)c1ccccc1 [Example I-3-11] | log P = 2.05^a)
49 | CNC(=O)N(C)Cc1ccc(C(=O)c2cnn(C)c2O)c([N+](=O)[O-])c1 [Example I-3-25] | log P = 0.68^a)
50 | CC(C)N(Cc1ccc(C(=O)C2C(=O)CCCC2=O)c([N+](=O)[O-])c1)C(=O)Oc1ccccc1 [Example I-3-39] | log P = 3.53^a)
51 | CC(C)N(Cc1ccc(C(=O)c2cnn(C)c2O)c([N+](=O)[O-])c1)C(=O)Oc1ccccc1 [Example I-3-40] | log P = 2.59^a)
52 | CCOC(=O)N(Cc1ccc(C(=O)C2C(=O)CCCC2=O)c([N+](=O)[O-])c1)C(C)C [Example I-3-41] | log P = 3.04^a)
53 | CCOC(=O)N(Cc1ccc(C(=O)c2cnn(C)c2O)c([N+](=O)[O-])c1)C(C)C [Example I-3-42] | log P = 2.06^a)

same assay, conditions: reversed-phase HPLC column (C 18); given in the preparation examples, acidic or neutral range not given

Row | chromatographic logP | SMILES
54 | 2.31 | O=C(O)c1ccc(Cl)c(OCCCl)c1Cl [2,4-dichloro-3-(2-chloro-ethoxy)-benzoic acid]
55 | 1.6 | CCn1ncc(C(=O)c2ccc(Cl)c(OCCNC(=S)NC)c2Cl)c1O [Example I-2-2, N-(2-{2,6-dichloro-3-[(1-ethyl-5-hydroxy-1H-pyrazol-4-yl)-carbonyl]-phenoxy}-ethyl)-N′-methyl-thiourea]
56 | 2.06 | CCn1ncc(C(=O)c2ccc(Cl)c(OCCNC(C)=O)c2Cl)c1OCc1ccc(Br)cc1 [Example I-2-4, N-{2-[3-({5-[(4-bromo-benzyl)-oxy]-1-ethyl-1H-pyrazol-4-yl}-carbonyl)-2,6-dichloro-phenoxy]-ethyl}-acetamide]
57 | 0.72 | CCn1ncc(C(=O)c2ccc(Cl)c(OCCN)c2Cl)c1O [II-1, [3-(2-amino-ethoxy)-2,4-dichloro-phenyl]-(1-ethyl-5-hydroxy-1H-pyrazol-4-yl)-methanone]
58 | 2.73 | CCn1ncc(C(=O)c2ccc(Cl)c(OCCCl)c2Cl)c1O [[2,4-dichloro-3-(2-chloro-ethoxy)-phenyl]-(1-ethyl-5-hydroxy-1H-pyrazol-4-yl)-methanone]
59 | 3.76 | CCOC(=O)c1ccc(Cl)c(OCCCl)c1Cl [ethyl 2,4-dichloro-3-(2-chloro-ethoxy)-benzoate]
